US20200246308A1, “SYNERGISTIC COMBINATIONS OF UROLITHINS A AND B FOR IMPROVING COGNITIVE CAPACITY OR COGNITIVE FUNCTION” (Natreon, Inc., priority 2018, published 2020)

Experiments:
Human recombinant AChE = molecular target: T1, Human recombinant AChE (Homo sapiens, UniProt P22303); test: In-vitro human recombinant AChE inhibition assay, Ellman method; assay type: biochemical; settings: Table 10
T1 construct: purchased Sigma Aldrich
Excerpt: In-vitro human recombinant AChE inhibition assay: Procedure described by Ellman et al. was used after some modification for AChE inhibition assay. Human recombinant AChE was purchased from Sigma Aldrich (St. Louis, Mo.). Acetylthiocholine iodide (ATCI), 5,5′-dithiobis (2-nitrobenzoic acid) (DTNB-Ellman's reagent) were purchased from Himedia Pvt. Ltd. (New Delhi, India). Donepezil was used as positive control groups. Tris-HCl buffer (pH 8) was used to perform the in-vitro assay.
Further, substrate i.e. ATCI (15 mM, 30 μL) was added and it was incubated for additional 30 min. Finally 160 μL (1.5 mM) of DTNB was added and the absorbance was recorded at 415 nm using Epoch microplate reader (BioTek). The IC50 value was calculated using absorbance obtained from the test and standard compounds. The assay was performed in triplicate and in three independent runs (see Equation 1).

[1] = test system: acetylcholine (ACh) level in HIP tissue; test: Acetylcholine level in hippocampal tissue, Amplex Red kit (Example 9D); assay type: in vivo, Male Wistar rats; settings: p.o. 7 days: B 50, A 50, Donepezil 3, B:A 10:50 and 50:50, Shilajit 50 mg/kg
Protocol: Drug solution was freshly prepared in 0.3% CMC and administered by oral gavage once a day, for a period of 7 days. Briefly, the whole experiment was conducted for 8 days. Scopolamine (1 mg/kg), a muscarinic receptor antagonist, was dissolved in normal saline (0.9% NaCl) and administered intraperitoneally 1 h after drugs administration on seventh day.
Sample preparation: The animals were killed by decapitation and the brain tissues were dissected out in ice-cold conditions and stored at −80° C. until use. Tissue was homogenized in 1.0 ml of 0.1M perchloric acid with a Potter-Elvehjem homogenizer. The homogenate was kept in the polypropylene tubes for 15 min after which 40 μl of 4M potassium acetate was added to adjust the pH to 4.0 followed by centrifugation for 15 min at 4000×g. Supernatant was used to estimate acetylcholine and AChE activities.
Samples were prepared as in Example 9C. The amount of acetylcholine in brain tissues was measured using Amplex red assay kit (Molecular Probes, Inc., USA). An acetylcholine standard curve was used in each experiment. Briefly, the reactions are initiated by adding 0.1 ml of control (10 μM H2O2) and tissue homogenates were taken in two separate polypropylene tubes and then 0.1 ml working solution of 400 μM Amplex Red reagent containing 2 U/mL HRP, 0.2 U/mL choline oxidase and 1 U/mL acetylcholinesterase were added to each tube. After incubation for 45 min, the fluorescence was recorded with the help of spectrofluorometer at 530 nm excitation and 590 nm emission wavelengths. The protein content was determined using standard protocol (Lowry, et al., 1951).
Statistical analyses: The results were expressed as means±Standard Error mean (SEM). The intergroup variation was measured by one-way ANOVA followed by Student-Newman-Keuls test. Two-way followed by Bonferroni test was employed to discover the intergroup variation in Y maze test considering groups and arms as two independent variables. Statistical analysis was done by using Graph Pad prism version 5 (San Diego, Calif.). A level of p<0.05 was accepted as statistically significant.

[2] = molecular target: T2, recombinant human Acetylcholinesterase-induced β-Amyloid (Aβ40) Aggregation (Homo sapiens, UniProt P22303); test: Inhibition of human recombinant AChE-induced β-amyloid peptide aggregation, ThT method; assay type: biochemical; settings: test compounds 50 μM, B:A in μM, 48 h
T2 construct: purchased Sigma Aldrich
Protocol: The Aβ1-40 (10 μM and 30 μM) was incubated alone and independently with different concentrations of test compounds in the ratios shown in Tables 6 and 7, respectively.
2 μL of different concentrations of Aβ40 (10 and 30 μM) was incubated with 16 μL of AChE in the presence of different ratio of test compounds to obtain final concentrations of 30 or 10 μM Aβ40, […], 10, 20, 50 μM test compounds and 2 μL assay buffer ([…]). The mixture was incubated at room temperature for 24 or 48 hr in dark (Time period may be changed according to experiment).
Fluorescence intensities were obtained for Aβ40 aggregation in the presence of inhibitors, in the absence of inhibitors and the blanks or solvent control. After incubation, 178 μL of 20 μM ThT was added.
The percentage inhibition of the AChE-induced Aβ1-40 aggregation was calculated as follows.
Chemical reagents and starting materials were employed as above.

[3] = test system: scopolamine induced amnesic rat model; test: Passive avoidance test, scopolamine induced amnesic rat model (Example 9B); assay type: in vivo, Male Wistar rats; settings: p.o. 7 days: B 50, A 50, B:A 10:50 and 50:50 mg/kg, Shilajit 25 mg/kg b.i.d; scopolamine 1 mg/kg i.p.
Protocol: The experiment was conducted in accordance with the Principles of laboratory animal care. Male Wistar rats (200-250 g) were purchased from the Central Animal House, Institute of Medical Sciences, Banaras Hindu University (BHU), Varanasi, India. Experiments on animals were approved by the Institutional Animal Ethics Committee of BHU, Varanasi, India. The animals were housed in polypropylene cages under controlled environmental conditions of temperature of 25±1° C. and 45-55% relative humidity and a 12:12 h light/dark cycle. The experimental animals had free access to commercial rat feed and water ad libitum during the experiment. Animals were acclimatized for at least one week before using them for experiments and exposed only once to the experiment.
Rats were randomly allocated into eight study groups containing six in each group (n=6), as follows:
Drug solution was freshly prepared in 0.3% CMC and administered by oral gavage once a day, for a period of 7 days. Briefly, the whole experiment was conducted for 8 days. […]
Passive avoidance (PA) test: The PA task is a fear-aggravated test used to evaluate learning and memory in rodent models of CNS disorders. […] The transfer of the animal from one compartment to another was recorded and transfer latency time (TLT) was calculated in seconds. […]

T2 sequence (P22303 32-614): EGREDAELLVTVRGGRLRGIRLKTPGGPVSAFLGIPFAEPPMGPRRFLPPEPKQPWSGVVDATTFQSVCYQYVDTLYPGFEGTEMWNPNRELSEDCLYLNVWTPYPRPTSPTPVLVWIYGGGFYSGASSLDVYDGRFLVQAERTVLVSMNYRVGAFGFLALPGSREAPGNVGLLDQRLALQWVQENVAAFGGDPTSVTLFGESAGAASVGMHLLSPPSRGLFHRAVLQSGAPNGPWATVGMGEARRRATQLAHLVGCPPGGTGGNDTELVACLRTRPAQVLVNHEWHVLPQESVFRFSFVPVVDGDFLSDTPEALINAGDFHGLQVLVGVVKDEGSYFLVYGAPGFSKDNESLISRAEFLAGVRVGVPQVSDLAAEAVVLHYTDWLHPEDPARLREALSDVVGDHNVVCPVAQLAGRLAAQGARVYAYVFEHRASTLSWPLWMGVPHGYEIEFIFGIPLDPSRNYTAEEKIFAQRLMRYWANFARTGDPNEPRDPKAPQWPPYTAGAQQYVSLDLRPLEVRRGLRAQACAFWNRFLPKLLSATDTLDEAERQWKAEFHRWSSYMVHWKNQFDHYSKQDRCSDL
T1 sequence (P22303 32-614): as above

Compound | IC50 (Human recombinant AChE) | Scopolamine-induced decrease in ACh level in HIP tissue [1] | inhibition of Aβ40 aggregation ([2]; Aβ40 30 μM) | inhibition of Aβ40 aggregation ([2]; amyloid beta 10 μM) | Transfer latency time (TLT), retention trial vs acquisition trial [3]
O=c1oc2cc(O)ccc2c2ccccc12 [Urolithin B, 3-hydroxy-dibenzo-alpha-pyrone] | 272.67 ± 42.11 µg/mL | attenuated the scopolamine induced decrease in ACh level | ~43% | ~46% | significant increase in TLT of retention trial in comparison to acquisition trial but less effective as compared to the vehicle treated group
O=c1oc2cc(O)ccc2c2ccc(O)cc12 [Urolithin A, 3,8-dihydroxy-dibenzo-alpha-pyrone] | 410.50 ± 38.52 µg/mL | attenuated the scopolamine induced decrease in ACh level | ~30% | ~34% | significant increase in TLT of retention trial in comparison to acquisition trial but less effective as compared to the vehicle treated group
